In patent US20070036737A1, “PRODUCTS FOR TOPICAL A[…] LYSOPHO[…] FATTY ACIDS” (priority 2005, published 2007):

Test system: neuromuscular junction
Assay: inhibition of the ex-vivo neuromuscular junction preparation (FIG. 1)
Set-up: species or system mouse
Details: single molecule alone
Text: The Applicants arrived at the results of the present invention in the course of their studies on the mechanism of action of snake presynaptic PLA2 neurotoxins. These presynaptic neurotoxins are major components of the venom of many poisonous snakes. Starting from: a) the established fact that these neurotoxins are endowed with a phospholipase A2 (PLA2) activity and that such activity leads to the production of LysoPLs and FAs following the hydrolysis of the fatty acid ester bond in position 2 of phospholipids (4); b) the fact that lysophospholipids and fatty acids in the appropriate membrane localization favor membrane fusion and inhibit membrane fission (5), and that c) such biological activities would lead to the depletion of synaptic vesicles from nerve terminals, as the one observed by electron microscopy upon exposure to the snake presynaptic PLA2 neurotoxins (6,7), the Applicants decided to test the effect of a mixture of lysophospholipids and fatty acids on the neuromuscular junction both in an ex-vivo preparation and in an in-vivo system.
Similar data were obtained with other lysoPLs varying with respect to R and/or with respect to R′. […] In other words, the two molecules act in a synergistic mode and this is at the very basis of the present patent. […]

SMILES | inhibition of the neuromuscular junction
CCCCCCCC/C=C\CCCCCCCC(=O)O [OA, oleic acid] | unable to elicit a substantial inhibition
CCCCCCCCCCCCCC(=O)OC[C@@H](O)COP(=O)([O-])OCC[N+](C)(C)C [lysoPC, 1-Myristoyl-sn-glycero-3-phosphocholine] | unable to elicit a substantial inhibition
